Measurements published in patent US20130101680A1, “RADIOTHERAPY ENHANCER” (priority 2006, published 2013).

Columns and labels:
[1] = No-observed adverse effect level / maximum nontoxic dose in mice; details: as 5-FU; PAN-4 tumor-transplanted mouse, intravenous on days 1 and 8
[2] = test system: human pancreatic cancer strain PAN-4; experiment: Tumor growth inhibition by S-1, 5-FU or gemcitabine and X-ray, human pancreatic cancer strain PAN-4 in nude mice (Test Example 3); assay type: in vivo, human (in BALB/cA-nu mouse); details: for radiotherapy enhancing effect (combination with X-ray), in words: combination with X-ray 2 Gy, PAN-4
Protocol: (b) Preparation of test solution II: 5-fluorouracil (5-FU: Wako Pure Chemical Industries, Ltd.) was dissolved in physiological saline at a concentration of 1.5 mg/mL and sterilized by filtration with a 0.45-micron Millipore filter to obtain a drug solution of 15 mg/kg as 5-FU.
(c) Preparation of test solution 3: Gemcitabine (2′-difluoro-2′,3′-dideoxycytidine: Sigma) was dissolved in physiological saline at a concentration of 5 mg/mL and sterilized by filtration with a 0.45-micron Millipore filter to obtain a drug solution of 50 mg/kg as gemcitabine.
(d) Radiation (X-ray) irradiation method: Local irradiation was performed on a human tumor strain transplanted into the right femoral region of the mouse using MBR-1505R Type 2 X-ray Irradiation System of Hitachi Medical Corporation under an irradiation condition (irradiation position) so that exposure per mouse should be 2 Gy or 5 Gy. To prevent systemic irradiation, mice were placed in a storage box made of lead so that only their right leg should be exposed to radiation.
(e) Test: The human pancreatic cancer strain (PAN-4) subcutaneously transplanted into the back of a BALB/cA-nu mouse and grown beforehand was removed, cut into small fragments of about 2×2 mm^2 with scissors in physiological saline, and subcutaneously transplanted into the right femoral region of 5 or 6-week-old mice of the same strain with a transplantation needle. The mice were prebred for at least 1 to 2 weeks and divided into the control group, the radiation alone group, the drug alone group, and the drug plus radiation group, so that the tumor volume and standard deviation (S.D.) in each group (n=6 per group) should be as uniform as possible. Then, drug administration and X-ray irradiation were initiated. […] For 5-FU and gemcitabine, the drug treatment group was administered intravenously with 0.1 mL of the above-described 5-FU and gemcitabine drug solutions per body weight 10 g using a syringe for intravenous infusion on days 1 and 8. The radiation group was irradiated with 2 Gy or 5 Gy of X-ray in the above-described manner within about 1 hour after administration of each drug solution on day 1, at the start of the test, and on day 8. Tumor-bearing mice in the control group (non-radiation/non-drug treatment group) and the radiation alone group were orally administered with 0.5% HPMC solution alone in the same manner for 14 consecutive days.
By using the above-mentioned numerical formula 1, the tumor volume of each mouse in each group was obtained prior to the start of treatment experiment, on days 3, 5, 8 (1 week later) and 11 during the treatment period, and days 15 (2 weeks later), 18, 22 (3 weeks later), 25, and 29 (4 weeks later) after completion of treatment. For the PAN-4 strain, a relative tumor volume (RTV) to the tumor volume at the start was obtained. The mean tumor growth inhibition rate (%) in each treatment group based on the control group was obtained by using the above-mentioned numerical formula 2 on days 15, at the end of the treatment period, 22, and 29 and shown in Table 4.

[3] = BALB/cA-nu, mouse, in vivo, iv
[4] = test system: human lung cancer LC-11 strain; experiment: X-ray irradiation enhancing effect of cisplatin, human lung cancer LC-11 strain in nude mice (Comparative Example 1); assay type: in vivo, human (in BALB/cA-nu mouse)
Protocol: (a) Preparation of test solution I: The cisplatin solution (0.5 mg/mL) available from Bristol-Myers Squibb Company was used as it was. 0.1 mL per mouse body weight 10 g was administered for the dose of cisplatin 5 mg/kg, and […] per mouse body weight 10 g was administered for the dose of 7.5 mg/kg.
(b) Radiation (X-ray) irradiation method: Local irradiation was performed on a human tumor strain transplanted into the right femoral region of the mouse using MBR-1505R Type 2 X-ray Irradiation System of Hitachi Medical Corporation under an irradiation condition (irradiation position) so that exposure per mouse should be 2 Gy or 5 Gy. To prevent systemic irradiation, mice were placed in a storage box made of lead so that only their right leg should be exposed to radiation.
(c) Test: The human lung cancer LC-11 strain subcutaneously transplanted into the back of a BALB/cA-nu mouse and grown beforehand were removed, cut into small fragments of about 2×2 mm^2 with scissors in physiological saline, and subcutaneously transplanted into the right femoral region of 5 to 6-week-old mice of the same strain with a transplantation needle. The mice were bred for at least 1 to 2 weeks and divided into the control group, the radiation alone group, the drug alone group, and the drug plus radiation group, so that the tumor volume and standard deviation (S.D.) in each group (n=6 per group) should be as uniform as possible. Then, drug administration and X-ray irradiation were initiated. For the drug treatment group, 0.1 mL per body weight 10 g of a cisplatin solution for the dose of 5 mg/kg or […] per body weight 10 g of this solution for the dose of 7.5 mg/kg was administered into the caudal vein on day 1. The radiation group was irradiated with 2 Gy of X-ray in the above-described manner on day 1, at the start of the test, and on day 8. For tumor-bearing mice in the control group (non-radiation/non-drug treatment group) and the radiation alone group, physiological saline was administered into the caudal vein on day 1.
By using the above-mentioned numerical formula 1, the tumor volume of each mouse in each group was obtained prior to the start of treatment experiment, on days 3, 5, 8 (1 week later) and 11 during the treatment period, and days 15 (2 weeks later), 18, 22 (3 weeks later), 25, and 29 (4 weeks later) after completion of treatment. A relative tumor volume (RTV) to the tumor volume at the start of the test was obtained for each mouse. Then, the mean tumor growth inhibition rate (IR; %) in each treatment group based on the control group was obtained by using the above-mentioned numerical formula 2 on day 15, at the end of the treatment period, and on day 29, at 4 weeks later, and shown in Table 3.

[5] = 5-FU 15 mg/kg i.v. days 1 and 8 + X-ray 2 Gy
[6] = 5-FU 15 mg/kg i.v. days 1 and 8, alone
[7] = Gemcitabine 50 mg/kg i.v. days 1 and 8 + X-ray 2 Gy
[8] = Gemcitabine 50 mg/kg i.v. days 1 and 8, alone
[9] = CDDP 5.0 mg/kg i.v. day 1 + X-ray 2 Gy
[10] = CDDP 5.0 mg/kg i.v. day 1, alone
[11] = CDDP 7.5 mg/kg i.v. day 1 + X-ray 2 Gy
[12] = CDDP 7.5 mg/kg i.v. day 1, alone

For O=c1[nH]cc(F)c(=O)[nH]1 [5-FU, 5-fluorouracil], the maximum nontoxic dose [1] was 15 mg/kg, the “Tumor growth inhibition rate (IR) (%) Day 15” value [2, 5] was 15.8% and the “Tumor growth inhibition rate (IR) (%) Day 22” value [2, 5] was 27.5%. The “Tumor growth inhibition rate (IR) (%) Day 29” value [2, 5] was 36.9%, the “Tumor growth inhibition rate (IR) (%) Day 15” value [2, 6] was 12.4% and the “Tumor growth inhibition rate (IR) (%) Day 22” value [2, 6] was 16.8%. The “Tumor growth inhibition rate (IR) (%) Day 29” value [2, 6] was 29.2% and the “radiotherapy enhancing effect (combination with X-ray), in words” value (“radiotherapy enhancing effect” below) [2] was “did not show marked effect of the combination use”.
In the case of Nc1ccn([C@@H]2O[C@H](CO)[C@@H](O)C2(F)F)c(=O)n1 [Gemcitabine], the “no-observed adverse effect level” value [3] is reported as 50 mg/kg, the “Tumor growth inhibition rate (IR) (%) Day 15” value [2, 7] is reported as 40.0% and the “Tumor growth inhibition rate (IR) (%) Day 15” value ([2]; Gemcitabine 50 mg/kg i.v. days 1 and 8 + X-ray 2 Gy, listed as gemcitabine) is reported as 40%. The “Tumor growth inhibition rate (IR) (%) Day 22” value [2, 7] was 62.3%, the “Tumor growth inhibition rate (IR) (%) Day 29” value [2, 7] was 63.9% and the “Tumor growth inhibition rate (IR) (%) Day 15” value [2, 8] was 39.8%. The “Tumor growth inhibition rate (IR) (%) Day 22” value [2, 8] was 51.1%, the “Tumor growth inhibition rate (IR) (%) Day 29” value [2, 8] was 51.1% and the “radiotherapy enhancing effect” value [2] was “did not show a strong effect of the combination use”.
With N.N.[Cl][Pt][Cl] [cisplatin] the “IR (%) Day 15” value [4, 9] was 53.8%, the “IR (%) Day 29” value [4, 9] was 46.8% and the “IR (%) Day 15” value [4, 10] was 39.9%. For the same compound, the “IR (%) Day 29” value [4, 10] was 45.6%, the “IR (%) Day 15” value [4, 11] was 54.6% and the “IR (%) Day 29” value [4, 11] was 66.8%. The “IR (%) Day 15” value [4, 12] was 55.8%, the “IR (%) Day 29” value [4, 12] was 60.2% and the “radiotherapy enhancing effect” value ([4]; cisplatin 5 mg/kg or 7.5 mg/kg with X-ray 2 Gy, LC-11) was “did not notably enhance antitumor effects compared with treatment with cisplatin alone”.
